In patent US20220204577A1, “Synthetic Peptides With Affinity for the Interleukin-10 Receptor, Pharmaceutical Composition and Use Thereof as Immunomodulators for Treating Autoimmune, Inflammatory or Allergic Diseases” (Universidade Federal de Uberlândia, priority 2019, published 2022):

Key:
Type in all cases: cell-based
[1] = test system: NFκB, IFN, or TLR4 signaling pathways; test: Reporter cell lines treated with peptides alone (no activating molecule); details: various concentrations, 12, 24 and 48 hours
Method: To investigate the ability of the peptides to interfere with the NFkB, IFN, and TLR4 pathways, reporter cell lines were used. To analyze whether the isolated peptides (without activation molecules) could induce any type of activation, the isolated peptides were tested in the cell lines during 12, 24, and 48 hours of treatment. […] As an example, FIGS. 2A, 2B, and 2C show an analysis of NFkB expression after stimulation with the synthesized peptides described in this report. The cells were treated with the synthesized peptides Pep 1, Pep 2, Pep 3, and Pep 4 at various concentrations for 12, 24, and 48 hours, without activating molecules. Luciferase was then measured after 12 hours of treatment (FIG. 2A), 24 hours of treatment (FIG. 2B), and 48 hours of treatment (FIG. 2C). […] TNF-α (200 ng/mL) was used as a positive control.

NFκB [2] = test: NFkB expression in Jurkart-Dual reporter cells, peptide pre-treatment then TNF-α; details: peptide then TNF-α, 12, 24 and 48 hours
Method: The assay was then performed using TNF-α as the activating molecule not only in the control, but after a pre-treatment with the synthesized peptides Pep 1, Pep 2, Pep 3, and Pep 4 at various concentrations. […] In the assays shown in FIGS. 3 A, B, and C, NFkB expression analysis was performed in Jurkart-Dual reporter cells. Cells were treated with peptides for 1 hour and TNF-α (200 ng/ml) was added. Luciferase was measured after 12 hours of treatment (FIG. 3A), 24 hours of treatment (FIG. 3B), and 48 hours of treatment (FIG. 3C).

NFκB [3] = test: NFkB expression in Jurkart-Dual reporter cells, TNF-α pre-treatment then peptides
Method: Then another assay was performed in which the cells were pretreated with TNF-α and the peptides were added later. […] In the assays shown in FIGS. 4 A, B, and C the analysis of NFkB expression was performed in Jurkart-Dual reporter cells. Cells were treated with TNF-α (200 ng/ml) for 1 hour and the peptides were added. Luciferase was measured after 12 hours of treatment (FIG. 4A), 24 hours of treatment (FIG. 4B), and 48 hours of treatment (FIG. 4C). TNF-α (200 ng/mL) was used as a positive control and rIL-10 (Recombinant Interleukin-10) (0.4 ng/mL) as a negative control. * P<0.05; ** P<0.005; *** P<0.0005.

TLR4 signaling pathway [4] = test: TLR4 signaling pathway (SEAP) in HEK cells, peptide pre-treatment then LPS; details: 12 hours
Method: (§1) HEK cells were used to investigate the ability of the peptides to reduce activation of the TLR4 signaling pathway after 12 hours of treatment.
(§2) In the assay shown in FIG. 7A, the cells were treated with peptides for 1 hour, then LPS (100 ng/ml) was added. SEAP production was measured after 12 hours of treatment. In the assay shown in FIG. 7B, the cells were treated with LPS (100 ng/ml) for 1 hour, then the peptides were added. SEAP production was measured after 12 hours of treatment. LPS (100 ng/mL) was used as positive control and IL-10 (0.4 ng/mL) as negative control. * P<0.05; ** P<0.005; *** P<0.0005.

TLR4 signaling pathway [5] = test: TLR4 signaling pathway (SEAP) in HEK cells, LPS pre-treatment then peptides; details: 12 hours
Method: as §1, §2

[6] = test system: Dendritic cells from mice bone marrow; test: Co-stimulatory molecules on bone marrow dendritic cells; details: CD11c+ dendritic cells; 1 μM; 24 hours
Method: Dendritic cells from mice bone marrow were isolated to analyze the effect of synthesized peptides Pep 1, Pep 2, Pep 3, and Pep 4 at two concentrations, 1 μM, and 10 μM, on reducing cell activation. […] In the assays, CD11c+CD86 cells (FIG. 8A) and CD11c+CD40+ cells (FIG. 8B) were used after 24 hours of treatment. LPS (100 ng/mL) was used as a positive control. * P<0.05; ** P<0.005.

Substance: Pep 2: synthetic peptide with affinity to the Interleukin-10 receptor, SEQ ID No 02, without disulfide bridges (HASSAVIKSSSGGGS; INTERLEUKIN-10 MIMETIC PEPTIDE)
- NFkB expression (luciferase) [1]: unable to elicit any response
- NFκB activation (NFκB [2]; 0.1 μM): decreased NFκB activation
- NFκB activation (NFκB [2]; 0.5 μM): decreased NFκB activation
- NFκB activation (NFκB [2]; 1 μM): decreased NFκB activation
- NFκB activation (NFκB [2]; 5 μM): decreased NFκB activation
- NFκB activation (NFκB [2]; 10 μM): decreased NFκB activation
- NFκB activation (NFκB [2]; 100 μM): decreased NFκB activation
- NFκB signaling (NFκB [3]; TNF-α 200 ng/ml 1 hour, then peptide, 100 μM, 12 hours): able to decrease NFκB signaling
- NFκB signaling (NFκB [3]; TNF-α then peptide, 0.5 μM, 24 hours): less activation of the analyzed signaling pathway
- NFκB signaling (NFκB [3]; TNF-α then peptide, 1 μM, 12 hours): able to decrease NFκB signaling
- NFκB signaling (NFκB [3]; TNF-α then peptide, 1 μM, 24 hours): less activation of the analyzed signaling pathway
- NFκB signaling (NFκB [3]; TNF-α then peptide, 5 μM, 12 hours): able to decrease NFκB signaling
- NFκB signaling (NFκB [3]; TNF-α then peptide, 5 μM, 24 hours): less activation of the analyzed signaling pathway
- NFκB signaling (NFκB [3]; TNF-α then peptide, 10 μM, 12 hours): able to decrease NFκB signaling
- NFκB signaling (NFκB [3]; TNF-α then peptide, 100 μM, 24 hours): less activation of the analyzed signaling pathway
- TLR4 pathway activation (TLR4 signaling pathway [4]; peptide 1 hour, then LPS 100 ng/ml, 100 μM): significantly reduced pathway activation
- TLR4 pathway activation (TLR4 signaling pathway [4]; peptide then LPS, 0.1 μM): significantly reduced pathway activation
- activation of the TLR4 pathway (TLR4 signaling pathway [5]; LPS 100 ng/ml 1 hour, then peptide, 100 μM): activation of the TLR4 pathway was more significantly reduced
- activation of the TLR4 pathway (TLR4 signaling pathway [5]; LPS then peptide, 0.01 μM): activation of the TLR4 pathway was more significantly reduced
- activation of the TLR4 pathway (TLR4 signaling pathway [5]; LPS then peptide, 0.05 μM): activation of the TLR4 pathway was more significantly reduced
- activation of the TLR4 pathway (TLR4 signaling pathway [5]; LPS then peptide, 0.1 μM): activation of the TLR4 pathway was more significantly reduced
- activation of the TLR4 pathway (TLR4 signaling pathway [5]; LPS then peptide, 0.5 μM): activation of the TLR4 pathway was more significantly reduced
- activation of the TLR4 pathway (TLR4 signaling pathway [5]; LPS then peptide, 1 μM): activation of the TLR4 pathway was more significantly reduced
- expression of CD40+ [6]: decreased the expression of CD86+ and CD40+
- expression of CD86+ [6]: decreased the expression of CD86+ and CD40+
